{"source": "patent US6375927B1", "about": "“Methods of radiotherapy using biomodulators” (priority 1991, dated 2002)", "key": {"[1]": {"tested_on": "B-16 melanoma cells", "test": "Effect of a biomodulator on the biodistribution of a non-specific agent (I-125 BSA)", "format": "in vivo, mice", "settings": "2 hours (FIG. 9) and 4 hours (FIG. 10)", "from_the_text": "The results of biodistribution studies of mice injected with 6×10^5 B-16 melanoma cells 7 days prior to the injection of Tc-99m labeled pokeweed (Tc-99m PWM) and I-125 bovine serum albumin (I-125 BSA) or Tc-99m labeled human serum albumin (Tc-99m HSA) and I-125 bovine serum albumin (I-125 BSA) ."}, "[2]": {"tested_on": "xenografts of human teratocarcinoma tumors", "test": "Imaging tumors with 99mTc-labeled TNF-α and biomodulators", "format": "in vivo, Balb/c mice", "settings": "pretreatment 15 hours earlier", "method": "Balb/c mice bearing xenografts of human teratocarcinoma tumors induced by subcutaneous injections of live tumor cells 8 days previously were injected with 10 μg of Ukrain, pokeweed mitogen or 10K units of interferon. 15 hours later, they were injected i.v. with 10 μCi of ^99mTc-labeled TNF-α labeled using the ascorbic acid reduction method of M. L. Thakur. M. L. Thakur et al., “Tc-99m Labeled Monoclonal Antibodies: Evaluation of Reducing Agents,” Internat. J. Nucl. Med. Biol. 18, 227-233 (1991). M. L. Thakur et al., “Tc-99m Labeled Monoclonal Antibodies for Immunoscintigraphy: Simplified Preparation and Evaluation,” J. Immunol. Methods 137, 217-225 (1991). Mice were imaged at 1.5, 4 and 24 hours post injection of the ^99m-labeled TNF-α and sacrificed for tissue distribution studies."}, "[3]": {"tested_on": "canine glioma tumors", "test": "NMR imaging of tumor using pokeweed mitogen; effect on T1", "format": "in vivo, nude rats", "method": "Three nude rats were implanted with canine glioma tumors in their left flank. […] NMR imaging was performed as above at 4 hours post injection."}, "[4]": {"tested_on": "B-16 melanoma cells", "test": "Tissue localization of otherwise non-specific imaging agent (Tc-99m HSA) after pokeweed mitogen", "format": "in vivo, mouse", "settings": "10 μg pokeweed mitogen four hours before 99mTc-HSA", "method": "A mouse ([…]) was injected with B-16 melanoma cells in accordance with Example 1. 7 days later, 10 μg of pokeweed mitogen was injected into the mouse. Four hours later ^99mTc-human serum albumin (HSA) was injected. The resultant posterior gamma camera image is obtained of the tumor grown in the mouse. Comparison with the control image."}, "[5]": {"settings": "4 and 24 hours post injection of TNF-α"}, "[6]": {"settings": "1.5 hours post injection of TNF-α"}, "[7]": {"settings": "treatment with unlabeled PWM, FIG. 6"}}}
{"substance": "I-125 BSA: I-125 bovine serum albumin, non-specific agent", "values": [{"measurement": "distribution of I-125 BSA depending on co-injected agent (Tc-99m PWM or Tc-99m HSA)", "setting": "[1]", "value": "significant differences"}]}
{"substance": "interferon", "values": [{"measurement": "tumor to muscle ratios of radioisotope uptake (99mTc-labeled TNF-α) compared to mice not receiving biomodulators or interferon", "setting": "[2]; [5]", "value": "not at 4 and 24 hours"}, {"measurement": "tumor to muscle ratios of radioisotope uptake (99mTc-labeled TNF-α) compared to mice not receiving biomodulators or interferon", "setting": "[2]; [6]", "value": "enhanced"}]}
{"substance": "pokeweed mitogen", "values": [{"measurement": "Visualization of the tumors (NMR imaging)", "setting": "[3]; 4 hours post injection, 7 days post-implantation", "value": "observed as bright areas"}, {"measurement": "effect on T1 of the treated tissue image", "setting": "[3]; NMR image, 4 hours post injection", "value": "lowers T1"}, {"measurement": "T1 measured on the tumor", "setting": "[3]; [7]", "value": "enhanced tenfold"}, {"measurement": "T1 of normal muscle tissue", "setting": "[3]; [7]", "value": "remained at baseline levels"}, {"measurement": "gamma camera image of tumor with 99mTc-HSA versus control image without pokeweed mitogen", "setting": "[4]", "value": "significant image enhancement"}, {"measurement": "tumor to muscle ratios of radioisotope uptake (99mTc-labeled TNF-α) compared to mice not receiving biomodulators or interferon", "setting": "[2]; [5]", "value": "not at 4 and 24 hours"}, {"measurement": "tumor to muscle ratios of radioisotope uptake (99mTc-labeled TNF-α) compared to mice not receiving biomodulators or interferon", "setting": "[2]; [6]", "value": "enhanced"}]}
